{"source": "patent US7230074B2", "about": "“Inhibitors of dipeptidyl-aminopeptidase type IV” (Trustees of Tufts College, priority 1991, dated 2007)", "key": {"HIV-1-IIIB in A3.5 cells": {"test_system": "HIV-1-IIIB in A3.5 cells", "assay": "HIV-1 replication in A3.5 cells (p24 antigen ELISA)", "assay_type": "cell-based", "text": "[…]. The rational for these experiments comes from the reported connection between T-cell activation, IL-2 production, and HIV replication and expression of HIV proteins.\nCell lines used in the present studies include A3.5 cells (a monocyte cell line which is CD4+, HLA−DR+, and CD3—) and peripheral blood mononuclear cells (PBMC). The A3.5 cells grow continuously in culture without exogenous growth factors. PBMC cells require IL-2 for propagation in vitro. Cells were infected with HIV-1-IIIB at a multiplicity of infection (moi) of 5×10^−4 tissue culture infectious dose 50 (TCID50)/cell for both the A3.5 cells and the PMBC cells. Dilutions of inhibitor were made in RPMI-1640 and subsequently passed through a 0.22 um filter. At the start of each experiment, 1×10^6 cells/well, in 24-well plates, were infected with HIV-1-IIIB at the moi indicated above. Inhibitor was added simultaneously at the appropriate dilutions. All cultures were maintained at 5% CO2 and 37° C. in RPMI-1640 supplemented with penicillin, streptomycin, L-glutamine, hepes buffer, and 20% heat-inactivated fetal calf serum. Cell counts and viability were determined by trypan blue exclusion. Culture supernatants were harvested and assayed for HIV-1 p24 antigen by ELISA (NEN-DuPont, Boston, Mass.). Fresh media and inhibitor were added on each day. […]"}, "[1]": {"assay": "Decomposition in aqueous solution", "assay_type": "physicochemical", "conditions": "neutral pH, room temperature (20–25° C.)", "text": ". Many dipeptide derivatives with a free N terminal amino group and a functional group (such as a difluoromethyl ketone) on the C-terminus are similarly unstable due to intramolecular reaction. A six member ring is formed between the amino and C-terminal functional groups and undergoes subsequent further reaction, such as hydrolysis."}, "[2]": {"target": "T1, DP-IV from human placenta (Homo sapiens, UniProt P27487)", "T1 construct": "and from human placenta by the method of Puschel et al; from tissue; host or cells: human placenta", "T1 sequence (P27487 whole entry)": "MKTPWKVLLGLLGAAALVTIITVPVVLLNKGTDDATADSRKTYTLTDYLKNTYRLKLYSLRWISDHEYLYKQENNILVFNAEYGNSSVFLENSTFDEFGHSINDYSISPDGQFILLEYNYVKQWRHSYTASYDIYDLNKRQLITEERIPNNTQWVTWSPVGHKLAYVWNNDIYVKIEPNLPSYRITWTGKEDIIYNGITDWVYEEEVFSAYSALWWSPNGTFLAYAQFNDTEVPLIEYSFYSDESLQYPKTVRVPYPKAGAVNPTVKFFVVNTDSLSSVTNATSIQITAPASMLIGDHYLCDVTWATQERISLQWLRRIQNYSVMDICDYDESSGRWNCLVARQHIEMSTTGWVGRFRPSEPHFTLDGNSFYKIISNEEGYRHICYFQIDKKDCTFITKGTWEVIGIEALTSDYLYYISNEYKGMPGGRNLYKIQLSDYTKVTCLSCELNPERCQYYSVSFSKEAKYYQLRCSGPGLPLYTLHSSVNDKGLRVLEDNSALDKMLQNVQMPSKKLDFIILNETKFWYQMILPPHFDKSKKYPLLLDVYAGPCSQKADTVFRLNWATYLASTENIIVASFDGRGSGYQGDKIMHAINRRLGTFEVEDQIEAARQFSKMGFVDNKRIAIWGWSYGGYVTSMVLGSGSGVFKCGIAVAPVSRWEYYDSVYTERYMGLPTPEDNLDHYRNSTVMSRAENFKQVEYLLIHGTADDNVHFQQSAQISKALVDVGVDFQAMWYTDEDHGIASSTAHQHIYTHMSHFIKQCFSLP", "assay": "DP-IV inhibition, enzyme from human placenta", "assay_type": "biochemical"}, "[3]": {"target": "T2, DP-IV isolated from porcine kidneys (Sus scrofa, UniProt P22411)", "T2 construct": "DP-IV is purified from pig kidney cortex by the method of Barth et al; from tissue; host or cells: pig kidney cortex", "T2 sequence (P22411 whole entry)": "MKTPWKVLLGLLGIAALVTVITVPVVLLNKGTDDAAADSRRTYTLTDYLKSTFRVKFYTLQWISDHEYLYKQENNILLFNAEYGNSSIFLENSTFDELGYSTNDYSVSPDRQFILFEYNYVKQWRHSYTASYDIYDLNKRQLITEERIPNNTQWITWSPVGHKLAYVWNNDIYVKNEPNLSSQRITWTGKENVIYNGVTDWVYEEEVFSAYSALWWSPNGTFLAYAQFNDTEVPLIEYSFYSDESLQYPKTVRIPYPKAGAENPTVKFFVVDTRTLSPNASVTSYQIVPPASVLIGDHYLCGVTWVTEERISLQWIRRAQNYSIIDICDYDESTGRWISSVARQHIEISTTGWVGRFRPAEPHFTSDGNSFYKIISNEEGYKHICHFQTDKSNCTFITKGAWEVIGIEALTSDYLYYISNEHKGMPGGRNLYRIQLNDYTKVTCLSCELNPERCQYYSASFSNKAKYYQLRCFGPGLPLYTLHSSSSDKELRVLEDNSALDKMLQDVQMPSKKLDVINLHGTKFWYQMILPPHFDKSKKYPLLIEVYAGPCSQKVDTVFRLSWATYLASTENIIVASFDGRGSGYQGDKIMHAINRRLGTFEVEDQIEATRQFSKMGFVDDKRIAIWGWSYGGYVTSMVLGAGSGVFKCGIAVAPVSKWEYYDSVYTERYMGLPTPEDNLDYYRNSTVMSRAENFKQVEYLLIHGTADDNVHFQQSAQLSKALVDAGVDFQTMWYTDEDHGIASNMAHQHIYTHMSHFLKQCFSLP", "assay": "DP-IV inhibition, hydrolysis of Ala-Pro-p-nitroanilide", "assay_type": "biochemical, pig", "conditions": "for Inhibition of / affinity for DP-IV (in words): N terminus blocked", "procedure": "Briefly, a reaction containing 50 μmol sodium Hepes (pH 7.8), 10 μmol Ala-Pro-p-nitroanilide, 6 milliunits of DP-IV, and 2% (vol/vol) dimethylformamide in a total volume of 1.0 ml. The reaction was initiated by the addition of enzyme and reaction rates were measured at 25° C.\nTh rates of DP-IV-catalyzed hydrolysis of Ala-Pro-p-nitroanilide were determined at 3 to 5 different concentration of Ala-boroPro Pro-boroPro, boroPro and N-Boc-Ala-boroPro."}}}
{"smiles": "C[C@H](N)C(=O)N1CCCC1B(O)O", "note": "(mixture of isomers) [Ala-boroPro, H-Ala-boroPro]", "values": [{"measurement": "Suppression of HIV (p24 antigen)", "setting": "HIV-1-IIIB in A3.5 cells; A3.5 cells infected with HIV-1-IIIB", "result": "suppresses HIV below detectable levels"}, {"measurement": "half-life", "setting": "[1]", "result": "~0.5", "unit": "h"}]}
{"smiles": "O=C([C@@H]1CCCN1)N1CCCC1B(O)O", "note": "(mixture of isomers) [Pro-boroPro, H-Pro-boroPro]", "values": [{"measurement": "Inhibition of DP-IV from human placenta compared with pig kidney enzyme", "setting": "[2]", "result": "equally well"}, {"measurement": "half-life", "setting": "[1]", "result": "~1.5", "unit": "h"}, {"measurement": "Ki", "setting": "[3]", "result": 0.003, "unit": "µM"}, {"measurement": "Ki for DP-IV (in words)", "setting": "[3]; pig kidney DP-IV", "result": "nanomolar range"}, {"measurement": "Affinity for DP-IV, fold less than that of H-Ala-boroPro", "setting": "[3]; relative to H-Ala-boroPro", "result": "about 10 fold"}]}
{"smiles": "Cc1cn([C@H]2C[C@H](N=[N+]=[N-])[C@@H](CO)O2)c(=O)[nH]c1=O", "note": "[AZT, zidovudine, reference compound]", "values": [{"measurement": "Anti-HIV effect (p24 antigen)", "setting": "HIV-1-IIIB in A3.5 cells; 1 μM, A3.5 cells", "result": "anti-HIV effect"}]}
{"smiles": "OB(O)C1CCCN1", "note": "(stereo not shown) [BoroPro, boroProline]", "values": [{"measurement": "Ki", "setting": "[3]", "result": 110, "unit": "µM"}, {"measurement": "Decrease in affinity on going from Ala-boroPro or Pro-boroPro", "setting": "[3]; relative to Ala-boroPro or Pro-boroPro, Table 1", "result": "10^5–10^6"}]}
{"smiles": "CC(NC(=O)OC(C)(C)C)C(=O)N1CCCC1B(O)O", "note": "(stereo not drawn) [N-Boc-Al-boroPro, N-Boc-Ala-boroPro]", "values": [{"measurement": "Ki", "setting": "[3]", "result": "> 1000", "unit": "µM"}, {"measurement": "Inhibition of / affinity for DP-IV (in words)", "setting": "[3]", "result": "abolished inhibition"}, {"measurement": "Inhibition of / affinity for DP-IV (in words)", "setting": "[3]; listed as Boc-blocked Ala-boroPr", "result": "no affinity"}]}
